Laboratory results as given in US20170246194A1, “Acetaminophen-Containing Analgesic Formulations With Reduced Hepatotoxicity” (Purdue Pharma L.P., priority 2014, published 2017).

How the values were obtained:
male C3HeB/FeJ mice = assay: Toxicity in mice: acetaminophen-induced liver injury, plasma ALT activity; type: in vivo; settings: fasted mice; for protection of the liver against acetaminophen damage (maximal ALT elevation): cimetidine 20% and/or methionine 30% of the acetaminophen dose
Experimental: This example is performed as described in Saito, Hepatology, 51(1):246, 2010, which is incorporated by reference herein.
At selected times after acetaminophen treatment, groups of animals are killed by way of cervical dislocation under anesthesia. Blood is drawn from the vena cava into heparinized syringes and centrifuged. The plasma is used for determination of alanine aminotransferase (ALT) activities. Plasma ALT activities are determined and expressed as international units per liter.
After establishing the model in the pilot phase, five experimental groups are studied. The groups receive vehicles containing the ingredients noted in Table B. If the methionine or cimetidine is ineffective or is fully protective, the doses are adjusted and the experiment repeated until the relative contribution of each relative to the combination is determined.
The outcome is maximal ALT elevation. Data are expressed as the mean±standard error. Comparison between groups is performed analysis of variance, or alternative non-parametric procedures if the data is not normally distributed. P<0.05 is considered significant.

[1] = normally, in man; cited from earlier work
volunteers = settings: human volunteers, given with acetaminophen 4 grams a day
Source text: All subjects participate in an initial multiple dose study of 1 gram of acetaminophen given four times a day (four grams a day), protected by twice a day transaminase determinations. […] Subjects with no elevation are terminated from the study. Subjects rest for three weeks after the first phase and then return for the second phase.
Subjects dose at 4 grams of acetaminophen a day. They have twice daily blood samples for serum transaminases, and proceed to the next day's dosing only if their most recent transaminase values are no more than 3 times the upper limit of normal.
The outcome variable is maximal transaminase elevations for each subject relative to baseline tested by ANOVA for each formulation. The test article is hepato-protective if there is a significant (P<0.05) difference in outcome for the formulation.
Subjects with transaminase elevations are followed at intervals to ensure that their values return to normal.

Compound	liver injury (maximal ALT elevation) (male C3HeB/FeJ mice; acetaminophen alone, intraperitoneal single dose)	ingested dose metabolized to the non-toxic sulfate or glucuronide [1]	protection of the liver against acetaminophen damage (maximal ALT elevation) (male C3HeB/FeJ mice)	serious adverse effects (volunteers)
CC(=O)Nc1ccc(O)cc1 [acetaminophen, N-acetyl-p-aminophenol]	causes liver injury	96%	–	–
CSCC[C@H](N)C(=O)O [methionine]	–	–	protected against damage	no additional serious adverse effects
CN/C(=N/CCSCc1nc[nH]c1C)NC#N [cimetidine]	–	–	protected against damage	no additional serious adverse effects
